Laboratory results from US6710032B1, “In situ formation of CLA” (University of Maryland, priority 1998, dated 2004).

What was measured:
C57/B1/6J mice = assay: Example 6: mouse milk fat and milk/fecal fatty acids when fed 18:1 isomer diets; type: in vivo; conditions: for Level of the test isomer in milk, % of the fat: day 10, fed the isomer diet; for Milk fat on day 10 versus day 6 of lactation: isomer about 25% of dietary fat, fed four days, creamatocrit
Source text: C57/B1/6J mice fed a control diet (10 wt % fat) were switched to one of four isomer diets at day 6 of lactation after milk collection. Approximately 25% of the dietary fat (5 caloric %) during the treatment period was replaced with one of four specific isomers of oleic acid, either cis-9; cis-11; trans-9 or trans-11, other diet components were identical. The mice consumed these diets ad libitum for four days and were milked again on day 10 of lactation. Milk and fecal fatty acid composition was analyzed as fatty acid methyl esters by GC. Specific isomers were identified by relative retention times. Milk fat percentage was determined by the creamatocrit method and differences between day 6 and day 10 fat percentages were evaluated by a paired t-test.
A lactating mouse is milked after injection of oxytocin(0.2 ml of a 1 IU/ml solution) immediately prior to milking. Milking is accomplished by creating a suction through tube 26 and inserting the funnel end 28 or tube 26 onto the teat of a lactating mouse in the upside-down position. As milk is collected into the funnel, a small capillary tube (i.e. the same as that used to collect human blood samples) is manually positioned within the funnel to collect milk by capillary action. Failure to promptly collect the milk will expose the milk to evaporation thus increasing fat content of the sample.

cows = assay: Ingestion of C18 trans 11 fats in cows, milk fat levels; conditions: in vivo

| Level of the test isomer in milk, % of the fat (C57/B1/6J mice) | SMILES | Milk fat on day 10 versus day 6 of lactation (C57/B1/6J mice) | Milk fat on day 10 versus day 6 of lactation (C57/B1/6J mice; listed as C18:1 t-11) | Milk fat levels in cows (cows) |
| --- | --- | --- | --- | --- |
| 3% | CCCCCC/C=C/CCCCCCCCCC(=O)O [trans-11, trans-11 18:1 fatty acid] | not statistically different | does not reduce milk fat | do not reduce milk fat levels |
| 5.8% | CCCCCCCC/C=C/CCCCCCCC(=O)O [trans-9, trans-9 18:1 fatty acid] | statistically lower | – | – |
| – | CCCCCCCC/C=C\CCCCCCCC(=O)O [Cis-9, cis-9 18:1 fatty acid] | identical fat values on days 6 and 10 | – | – |
| 10% | CCCCCC/C=C\CCCCCCCCCC(=O)O [cis-11, cis-11 18:1 fatty acid] | not statistically different | – | – |
